Experimental data from BindingDB's records for doi:10.1021/jm0491039 (University of Washington At Seattle, 2005).

Columns and labels:
[1] = biological target: Protein farnesyltransferase/geranylgeranyltransferase type-1 subunit alpha (Rattus norvegicus, UniProt Q04631); assay: PfPFT and Rat PFT IC50 Determination
Procedure: (§1) Assays for PFT activity were performed with a PFT-specific scintillation assay (SPA) kit (Amersham Biosciences, Piscataway, NJ). IC50 values were calculated using linear regression analysis of the plots of [3H] farnesyl pyrophosphate (FPP) prenylation versus concentration of compounds.

[2] = biological target: Protein farnesyltransferase/geranylgeranyltransferase type-1 subunit alpha / Protein farnesyltransferase subunit beta (Plasmodium falciparum, UniProt Q5EI73+Q5EI74); assay: PfPFT and Rat PFT IC50 Determination; details: pH 7.5; 37 °C
Protein farnesyltransferase/geranylgeranyltransferase type-1 subunit alpha / Protein farnesyltransferase subunit beta, sequence (Q5EI73 1-521): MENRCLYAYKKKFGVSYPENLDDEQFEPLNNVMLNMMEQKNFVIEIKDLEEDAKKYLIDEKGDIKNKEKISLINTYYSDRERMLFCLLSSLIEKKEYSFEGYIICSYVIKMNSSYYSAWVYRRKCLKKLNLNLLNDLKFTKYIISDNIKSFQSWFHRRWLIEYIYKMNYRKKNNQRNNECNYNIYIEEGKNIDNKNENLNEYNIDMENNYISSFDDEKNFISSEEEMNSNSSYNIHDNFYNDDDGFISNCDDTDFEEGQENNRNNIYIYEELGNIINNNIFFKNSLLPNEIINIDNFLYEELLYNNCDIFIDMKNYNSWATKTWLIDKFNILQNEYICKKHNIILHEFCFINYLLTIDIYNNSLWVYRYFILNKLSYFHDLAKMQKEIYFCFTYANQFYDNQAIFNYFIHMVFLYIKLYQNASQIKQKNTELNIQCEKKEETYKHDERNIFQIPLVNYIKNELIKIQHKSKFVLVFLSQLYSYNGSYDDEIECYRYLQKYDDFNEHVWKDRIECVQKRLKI
Protein farnesyltransferase/geranylgeranyltransferase type-1 subunit alpha / Protein farnesyltransferase subunit beta, sequence (Q5EI74 1-923): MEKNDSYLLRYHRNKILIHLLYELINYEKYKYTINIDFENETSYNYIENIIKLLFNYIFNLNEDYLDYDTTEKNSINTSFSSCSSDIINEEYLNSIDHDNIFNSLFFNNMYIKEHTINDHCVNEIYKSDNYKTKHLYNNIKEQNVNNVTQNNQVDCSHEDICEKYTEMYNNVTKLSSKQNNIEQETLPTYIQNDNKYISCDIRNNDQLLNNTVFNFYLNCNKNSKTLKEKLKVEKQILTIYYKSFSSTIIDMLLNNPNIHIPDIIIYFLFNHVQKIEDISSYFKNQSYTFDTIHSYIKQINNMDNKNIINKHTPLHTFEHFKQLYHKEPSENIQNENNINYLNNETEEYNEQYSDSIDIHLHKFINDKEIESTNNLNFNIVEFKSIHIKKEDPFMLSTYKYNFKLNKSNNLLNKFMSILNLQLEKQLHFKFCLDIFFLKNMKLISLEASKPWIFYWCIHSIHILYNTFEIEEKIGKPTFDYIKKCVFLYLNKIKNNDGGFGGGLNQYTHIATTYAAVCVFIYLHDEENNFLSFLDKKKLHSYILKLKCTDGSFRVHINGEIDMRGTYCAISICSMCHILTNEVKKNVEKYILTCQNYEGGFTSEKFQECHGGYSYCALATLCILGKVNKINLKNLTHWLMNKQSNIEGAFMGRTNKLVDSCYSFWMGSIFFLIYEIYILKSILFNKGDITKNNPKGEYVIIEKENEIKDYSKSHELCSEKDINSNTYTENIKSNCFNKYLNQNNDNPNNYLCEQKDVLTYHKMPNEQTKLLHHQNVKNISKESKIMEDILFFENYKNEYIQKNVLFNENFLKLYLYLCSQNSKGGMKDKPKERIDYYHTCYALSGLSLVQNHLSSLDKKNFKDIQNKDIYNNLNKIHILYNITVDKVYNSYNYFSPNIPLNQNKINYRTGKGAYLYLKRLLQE
Procedure: as §1

Row | SMILES | IC50 [1] | IC50 [2]
1 | [C-]#[N+]c1ccc2c(c1)CC(N(CC(=O)NC(C)(C)C)S(=O)(=O)c1cccnc1)CN2Cc1cncn1C (stereo unspecified) [N-tert-Butyl-2-[[6-isocyano-1-(3-methyl-3H-imidazol-4-ylmethyl)-1,2,3,4-tetrahydroquinolin-3-yl]-(pyridine-3-sulfonyl)amino]acetamide] | 6 nM | 25 nM
2 | [C-]#[N+]c1ccc2c(c1)CC(N(CC(=O)NC(C)(C)C)S(=O)(=O)c1ccncc1)CN2Cc1cncn1C (stereo unspecified) [N-tert-Butyl-2-[[6-isocyano-1-(3-methyl-3H-imidazol-4-ylmethyl)-1,2,3,4-tetrahydroquinolin-3-yl]-(pyridine-4-sulfonyl)amino]acetamide] | 160 nM | 1000 nM
3 | [C-]#[N+]c1ccc2c(c1)CC(N(CC(=O)NC(C)(C)C)S(=O)(=O)c1ccccn1)CN2Cc1cncn1C (stereo unspecified) [N-tert-butyl-2-({6-isocyano-1-[(1-methyl-1H-imidazol-5-yl)methyl]-1,2,3,4-tetrahydroquinolin-3-yl}(pyridine-2-)sulfonamido)acetamide] | 1.8 nM | 1.4 nM
